The text below walks through data of ChEMBL document CHEMBL1201862, “PubChem BioAssay data set” (2004).

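Interpolation was linear, between the two tested concentrations surrounding the appropriate level; five concentrations were tested over 48 hours in 96-well plates. Abbreviation: GI50, concentration required for 50% inhibition of growth.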 Calls of active or inactive are those of the source. Cut-off read from the data, not from the text of the source: active = GI50 up to about 1.1 µM and inactive = higher. Some results are limits rather than exact numbers.

Among the test systems are 786-0; HCC 2998; Hs-578T; LOX IMVI; MDA-MB-231; MDA-N; NCI-H460; OVCAR-5; OVCAR-8; SF-268; SF-539; SK-MEL-5; SK-OV-3; SNB-19; SNB-75; TK-10; UACC-257; UACC-62; NCI-H226; RPMI-8226.
Common to all, as to assay: DTP human tumour cell line panel, 48 h

For `COc1cc(/C=C2/C[C@H]3[C@@H]4CC=C5C[C@@H](OC(C)=O)CC[C@]5(C)[C@H]4CC[C@]3(C)NC2=O)cc(OC)c1OC`, the GI50 in the test with 786-0 was 17.9 µM (inactive); in the test on HCC 2998, 43.4 µM (inactive); with Hs-578T it was 24.2 µM (inactive); with LOX IMVI it was 38.7 µM (inactive); in the test with MDA-MB-231 it was 22 µM (inactive); with MDA-N, 42.7 µM (inactive). Also, the GI50 in the test with NCI-H460 is 32.7 µM (inactive); in the test with OVCAR-5 it was 27 µM (inactive); in the test with OVCAR-8, 27.8 µM (inactive); in the test with SF-268, 24 µM (inactive); in the test with SF-539, 13.1 µM (inactive); in the test with SK-MEL-5 it was 22.9 µM (inactive). For the same compound, the GI50 in the test with SK-OV-3 is 25.3 µM (inactive); with SNB-19, 15.9 µM (inactive); with SNB-75 it was 22.5 µM (inactive); in the test with TK-10, 26.5 µM (inactive); in the test on UACC-257 it was 26.5 µM (inactive); with UACC-62 it was 19.8 µM (inactive).
With `COC(=O)[C@]1(C)CCC[C@@]2(C)C1CC[C@@]13C=C(C(C)C)[C@@H](CC1=O)CC23` (stereo partly drawn), the GI50 in the test with 786-0 was 25.9 µM (inactive); with HCC 2998 it was 38.3 µM (inactive); in the test on Hs-578T it was 13.4 µM (inactive); with MDA-MB-231, 30.3 µM (inactive); in the test with MDA-N, 28.8 µM (inactive); with NCI-H226, 21.1 µM (inactive). Further, the GI50 in the test with NCI-H460 is 35.4 µM (inactive); with OVCAR-8, 29 µM (inactive); in the test on RPMI-8226, 18.5 µM (inactive); with SF-268 it was 32.5 µM (inactive); with SF-539 it was 20.9 µM (inactive); in the test on SK-MEL-5, 16.5 µM (inactive). The GI50 was 46.3 µM (inactive) with SK-OV-3; 25.8 µM (inactive) with SNB-19; 59.7 µM (inactive) in the test with SNB-75; 43.8 µM (inactive) with TK-10; 21.5 µM (inactive) in the test with UACC-257; 28.6 µM (inactive) with UACC-62.
For the compound `O=[N+]([O-])c1ccc(/C(=N/c2ccccc2)SS/C(=N\c2ccccc2)c2ccc([N+](=O)[O-])o2)o1`, the GI50 with 786-0 is 1.4 µM (inactive); in the test on HCC 2998, 1.59 µM (inactive); in the test on Hs-578T, 2.32 µM (inactive); with LOX IMVI, 1.49 µM (inactive); with MDA-MB-231, 2.74 µM (inactive); with MDA-N, 2.72 µM (inactive). Also, the GI50 in the test on NCI-H226 is 18.7 µM (inactive); with NCI-H460 it was 1.33 µM (inactive); in the test with OVCAR-5, 2.08 µM (inactive); with OVCAR-8, 1.52 µM (inactive); with SF-268 it was 1.8 µM (inactive); in the test with SF-539, 0.83 µM (active). Besides, the GI50 in the test with SK-MEL-5 is 5.78 µM (inactive); in the test with SK-OV-3, 3.86 µM (inactive); in the test with SNB-19 it was 1.84 µM (inactive); in the test with SNB-75 it was 1.66 µM (inactive); in the test on TK-10 it was 3.13 µM (inactive); in the test on UACC-257, 2.11 µM (inactive). For the same compound, the GI50 in the test on UACC-62 was 1.61 µM (inactive).
Take `CCOC(=O)C1C(c2ccc(O)c(OC)c2)c2c(n[nH]c2O)CC1(C)O` (stereo not drawn): the GI50 with 786-0, in the test with HCC 2998, in the test on Hs-578T, in the test on LOX IMVI, with MDA-MB-231 and with MDA-N was > 100 µM (inactive) in each case. The GI50 in the test with NCI-H460 was > 10 µM (inactive); in the test on OVCAR-5 it was > 100 µM (inactive); in the test on OVCAR-8, > 100 µM (inactive); with RPMI-8226 it was > 100 µM (inactive); with SF-268, > 100 µM (inactive); with SF-539, > 100 µM (inactive). Further, the GI50 in the test on SK-MEL-5, with SNB-19, in the test on SNB-75, with TK-10, in the test on UACC-257 and in the test on UACC-62 was > 100 µM (inactive) in each case.
